Data taken from ChEMBL document CHEMBL3137667, “[Drug-induced liver injury; fourteenth updated edition of the bibliographic database of liver injuries and related drugs]” (Gastroenterol Clin Biol, 2004).
*1 amine or outer side, *2 acyl side, *3 side chain or, on linkers, in order; H or OH if unused. Where a SMILES comes first, the peptide text is derived from it. Bridges are numbered along the chain shown (N, C = ends). [ ]: non-standard residue; d: D form. The star is where a group is joined. ξ: configuration not given here. X2 = N=C1NCCC([C@H](N[*:1])C(=O)[*:2])N1; ΔAla(Z-3-ureido) = NC(=O)N/C=C(\N)C(=O)O; ξβ3hOrn = NCCCC(N)CC(=O)*; Dap = NC[C@H](N)C(=O)O

Experiments:
[1] = Highest frequency of acute liver toxicity observed during clinical trials, expressed as a percentage. [column '% AIGUE' in source]; conditions: human
[2] = human, serum
[3] = human, serum; remark: listed apart in the source
[4] = human
[5] = human; remark: listed apart in the source
[6] = human; remark: listed apart in the source
[7] = Highest frequency of moderate liver toxicity observed during clinical trials, expressed as a percentage. [column '% BIOL' in source]; conditions: human
[8] = human; remark: listed apart in the source
[9] = human; remark: listed apart in the source
[10] = human; remark: listed apart in the source
[11] = human, serum, 4383 h
[12] = human; remark: listed apart in the source
[13] = human; remark: listed apart in the source
[14] = human; remark: listed apart in the source
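For Hepatotoxicity (association with vascular disease) in this document: count of indexed literature references reporting vascular liver injury in humans, e.g. peliosis hepatitis, hepatic veno-occlusive disease or Budd-Chiari syndrome.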
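For Hepatotoxicity (benign tumour) in this document: value is a count of indexed literature references citing a benign tumour confirmed by histopathology.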
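For Hepatotoxicity (choleostasis) in this document: human cholestatic liver injury, shown by histopathology or by peak ALT or AST elevation over alkaline phosphatase ratio below 2, value counts indexed literature reports.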
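For Hepatotoxicity (chronic liver disease) in this document: chronic liver injury confirmed by histopathology or persistently raised serum aminotransferase activity beyond 6 months, value given as the count of indexed literature references.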
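For Hepatotoxicity (cirrhosis) in this document: value is a count of indexed literature references reporting cirrhosis confirmed by histopathology.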
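For Hepatotoxicity (cytolytic) in this document: human cytolytic liver injury, shown by histopathology or by a ratio above 5 of peak ALT or AST elevation to alkaline phosphatase elevation, value counts indexed references.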
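For Hepatotoxicity (granulomatous hepatitis) in this document: value is a count of indexed literature references reporting granulomatous liver disease confirmed by histopathology.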
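For Hepatotoxicity (malignant tumour) in this document: malignant tumour confirmed by histopathology, value gives the count of indexed literature references reporting it.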
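For Hepatotoxicity (severe hepatitis) in this document: human clinical data: severe hepatitis, meaning potentially life-threatening liver failure or clinically observed cases, the value counts how many indexed literature references report it.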
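For Hepatotoxicity (steatosis) in this document: steatosis confirmed by histopathology, value is the count of indexed references.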

| SMILES | Hepatotoxicity (acute) [1] [%] | Hepatotoxicity (moderate) [2] | Hepatotoxicity (acute) [3] | Hepatotoxicity (choleostasis) [4] | Hepatotoxicity (malignant tumour) [5] | Hepatotoxicity (severe hepatitis) [6] | Hepatotoxicity (moderate) [7] [%] | Hepatotoxicity (association with vascular disease) [8] | Hepatotoxicity (steatosis) [9] | Hepatotoxicity (benign tumour) [10] | Hepatotoxicity (chronic liver disease) [11] | Hepatotoxicity (cytolytic) [12] | Hepatotoxicity (cirrhosis) [13] | Hepatotoxicity (granulomatous hepatitis) [14] |
| --- | --- | --- | --- | --- | --- | --- | --- | --- | --- | --- | --- | --- | --- | --- |
| C[C@@H]1NC(=O)[C@@H](N)CNC(=O)[C@H](C2CCNC(=N)N2)NC(=O)/C(=C/NC(N)=O)NC(=O)[C@H](CNC(=O)CC(N)CCCN)NC1=O.N=C1NCCC([C@@H]2NC(=O)/C(=C/NC(N)=O)NC(=O)[C@H](CNC(=O)CC(N)CCCN)NC(=O)[C@H](CO)NC(=O)[C@@H](N)CNC2=O)N1 (stereo partly drawn) [CAPREOMYCIN] (H-[Dap]S[Dap](ξβ3hOrn)[ΔAla(Z-3-ureido)][X2]; lactam 1-C) | 0 | 3 | 0 | 0 | 0 | 0 | 0 | 0 | 0 | 0 | 0 | 0 | 0 | 0 |
| CC1(C)[C@@H](OC(=O)CCC(=O)O)CC[C@]2(C)[C@H]3C(=O)C=C4[C@@H]5C[C@@](C)(C(=O)O)CC[C@]5(C)CC[C@@]4(C)[C@]3(C)CC[C@@H]12 [CARBENOXOLONE] | 0 | 2 | 0 | 0 | 0 | 0 | 0 | 0 | 0 | 0 | 0 | 0 | 0 | 0 |
| C[C@@](Cc1ccc(O)c(O)c1)(NN)C(=O)O.O [CARBIDOPA] | 0 | 0 | 1 | 1 | 0 | 0 | 0 | 0 | 1 | 0 | 0 | 0 | 0 | 0 |
| N[C@@H](CSCC(=O)O)C(=O)O [CARBOCYSTEINE] | 0 | 1 | 0 | 0 | 0 | 0 | 0.8 | 0 | 0 | 0 | 0 | 0 | 0 | 0 |
| NC(=O)OC[C@@H]1[C@H](NC(=O)/C(=N\OCC(=O)O)c2csc(N)n2)C(=O)N1S(=O)(=O)O [CARUMONAM] | 0 | 24 | 0 | 0 | 0 | 0 | 22 | 0 | 0 | 0 | 0 | 0 | 0 | 0 |
| CC[C@H](C)C[C@H](C)CCCCCCCCC(=O)N[C@H]1C[C@@H](O)[C@@H](NCCN)NC(=O)[C@@H]2[C@@H](O)CCN2C(=O)[C@H]([C@H](O)CCN)NC(=O)[C@H]([C@H](O)[C@@H](O)c2ccc(O)cc2)NC(=O)[C@@H]2C[C@@H](O)CN2C(=O)[C@H]([C@@H](C)O)NC1=O [CASPOFUNGIN] | 0 | 3 | 1 | 0 | 0 | 0 | 8.4 | 0 | 0 | 0 | 0 | 0 | 0 | 0 |
| CCN1CCN(C(=O)N[C@@H](C(=O)N[C@]2(OC)C(=O)N3C(C(=O)O)=C(CSc4nnnn4C)CS[C@@H]32)[C@H](C)O)C(=O)C1=O [CEFBUPERAZONE] | 0 | 2 | 0 | 0 | 0 | 0 | 6.4 | 0 | 0 | 0 | 0 | 0 | 0 | 0 |
| CO/N=C(\C(=O)N[C@@H]1C(=O)N2C(C(=O)[O-])=C(C[N+]34CCC(C(N)=O)(CC3)CC4)CS[C@H]12)c1nsc(N)n1 [CEFCLIDIN] | 0 | 49 | 0 | 0 | 0 | 1 | 40 | 0 | 0 | 0 | 0 | 0 | 0 | 0 |
| CO/N=C(\C(=O)N[C@@H]1C(=O)N2C(C(=O)OCOC(=O)C(C)(C)C)=C(/C=C\c3scnc3C)CS[C@H]12)c1csc(N)n1 [CEFDITOREN PIVOXIL] | 0 | 41 | 0 | 0 | 0 | 0 | 37.5 | 0 | 0 | 0 | 0 | 0 | 0 | 0 |
| CO[C@@]1(NC(=O)CSCC#N)C(=O)N2C(C(=O)O)=C(CSc3nnnn3C)CS[C@@H]21 [CEFMETAZOLE] | 0 | 5 | 0 | 0 | 0 | 0 | 9.1 | 0 | 0 | 0 | 0 | 0 | 0 | 0 |
| CO/N=C(\C(=O)N[C@@H]1C(=O)N2C(C(=O)O)=C(CSc3nc(C)c(CC(=O)O)s3)CS[C@H]12)c1csc(N)n1 [CEFODIZIME] | 0 | 51 | 0 | 0 | 0 | 0 | 44.4 | 0 | 0 | 0 | 0 | 0 | 0 | 0 |
